From US20250186391A1, “ORAL COMPLEMENT FACTOR D INHIBITORS” (BioCryst Pharmaceuticals, Inc., priority 2019, published 2025) come the findings set out here.

In this test the target is Factor D (Homo sapiens (Human), UniProt P00746). In words: Factor D esterolytic assay. Format: biochemical. To be noted: Z-Lys-SBzl substrate, 100 mM HEPES, 500 mM NaCl, pH 7.5, 10% DMSO; tested a minimum of three times; read-out: Measured Ki (IC50) Value for Compounds: IC50. The procedure, abridged: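 Buffer was 100 mM HEPES, 500 mM NaCl, pH 7.5 with 10% DMSO. Compound and Factor D were combined, then Z-Lys-SBzl (1.29 mM) was added either at once or following room-temperature incubation. Rates came from DTNB colour at 405 nm minus 690 nm over 600 s, with percent inhibition giving IC50 over at least three tests.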
Sequence of Factor D (P00746 26-253): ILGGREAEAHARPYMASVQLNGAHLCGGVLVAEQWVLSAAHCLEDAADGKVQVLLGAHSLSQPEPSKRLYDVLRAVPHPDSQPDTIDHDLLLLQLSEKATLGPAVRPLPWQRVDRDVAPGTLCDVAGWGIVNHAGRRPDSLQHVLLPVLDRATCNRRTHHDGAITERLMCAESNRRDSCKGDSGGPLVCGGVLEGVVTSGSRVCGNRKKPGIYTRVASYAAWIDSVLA
A word on the IC50: it is the point on the concentration scale where inhibition reaches its midpoint. On to `Cn1cc(-c2cc(-c3cccc(CN)c3)cc3c(COc4ccccc4CC(=O)O)c(C(=O)O)oc23)cn1` [Compound 60d, 5-(3-(aminomethyl)phenyl)-3-((2-(carboxymethyl)phenoxy)methyl)-7-(1-methyl-1H-pyrazol-4-yl)benzofuran-2-carboxylic acid], for which the 50% inhibitory concentration (IC50) was under 1000 nM.

Regarding `NCc1cccc(-c2ccc3oc(CO)c(COc4ccccc4CC(=O)O)c3c2)c1` [Compound 112c, 2-(2-((5-(3-(aminomethyl)phenyl)-2-(hydroxymethyl)benzofuran-3-yl)methoxy)phenyl)acetic acid], the 50% inhibitory concentration (IC50) was under 1000 nM. With `Cn1nc(COc2ccccc2CC(=O)O)c2cc(-c3cccc(CN)c3)c3occc3c21` [Compound 3021, 2-(2-((5-(3-(aminomethyl)phenyl)-1-methyl-1H-furo[2,3-g]indazol-3-yl)methoxy)phenyl)acetic acid], the half-maximal inhibitory concentration (IC50) is under 1000 nM.

Turning to `CN(C)Cc1cc(-c2cccc(CN)c2)cc2c(COc3ccccc3CC(=O)O)coc12` [Compound 82e, 2-(2-((5-(3-(aminomethyl)phenyl)-7-((dimethylamino)methyl)benzofuran-3-yl)methoxy)phenyl)acetic acid], the IC50 was under 1000 nM. Then `C[C@@H](N)c1cccc(-c2cc(CC3CCOCC3)c3occ(COc4ccccc4CC(=O)O)c3c2)c1F` [Compound 164e, (R)-2-(2-((5-(3-(1-aminoethyl)-2-fluorophenyl)-7-((tetrahydro-2H-pyran-4-yl)methyl)benzofuran-3-yl)methoxy)phenyl)acetic acid], with under 1000 nM; and `NCc1cccc(-c2ccc3occ(COc4cc(CN)ccc4CC(=O)O)c3c2)c1` [Compound 156c, 2-(4-(aminomethyl)-2-((5-(3-(aminomethyl)phenyl)benzofuran-3-yl)methoxy)phenyl)acetic acid], with under 1000 nM; and `CCc1ccc(CC(=O)O)c(OCc2coc3ccc(-c4cccc(CN)c4F)cc23)c1` [Compound 12g, 2-(2-((5-(3-(aminomethyl)-2-fluorophenyl)benzofuran-3-yl)methoxy)-4-ethylphenyl)acetic acid], with under 1000 nM. In the case of `NCc1cccc(-c2ccc3occ(COc4ccc(F)cc4CC(=O)O)c3c2)c1` [Compound 5d, 2-(2-((5-(3-(aminomethyl)phenyl)benzofuran-3-yl)methoxy)-5-fluorophenyl)acetic acid] it was under 1000 nM; in that of `NCc1cccc(-c2cc(COc3cccc(CC(=O)O)c3)cc3cc(COc4ccccc4CC(=O)O)oc23)c1` [Compound 16e, 2-(3-((7-(3-(aminomethyl)phenyl)-2-((2-(carboxymethyl)phenoxy)methyl)benzofuran-5-yl)methoxy)phenyl)acetic acid], under 1000 nM. `NCc1cccc(-c2ccc3occ(COc4cc(CC5CC5)ccc4CC(=O)O)c3c2)c1` [Compound 153d, 2-(2-((5-(3-(aminomethyl)phenyl)benzofuran-3-yl)methoxy)-4-(cyclopropylmethyl)phenyl)acetic acid]: the IC50 is under 1000 nM. In the case of `NCc1cccc(-c2ccc3c(c2)c(COc2ccccc2CC(=O)O)nn3C2CCCC2)c1` [Compound 292c, 2-(2-((5-(3-(aminomethyl)phenyl)-1-cyclopentyl-1H-indazol-3-yl)methoxy)phenyl)acetic acid], the concentration for half-maximal inhibition (IC50) was under 1000 nM. Consider `Cn1cncc1COc1cc(-c2cccc(CN)c2)cc2c(COc3ccccc3CC(=O)O)coc12` [Compound 199f, 2-(2-((5-(3-(aminomethyl)phenyl)-7-((1-methyl-1H-imidazol-5-yl)methoxy)benzofuran-3-yl)methoxy)phenyl)acetic acid], for which the IC50 is under 1000 nM. Take `CC(C)n1nc(COc2cccc(CC(=O)O)c2)c2cc(-c3cccc(CN)c3)ccc21` [Compound 304c, 2-(3-((5-(3-(aminomethyl)phenyl)-1-isopropyl-1H-indazol-3-yl)methoxy)phenyl)acetic acid]: the IC50 was over 10000 nM. For `CN1CCN(Cc2cc(-c3cccc(CN)c3)cc3c(COc4ccccc4CC(=O)O)coc23)CC1` [Compound 157e, 2-(2-((5-(3-(aminomethyl)phenyl)-7-((4-methylpiperazin-1-yl)methyl)benzofuran-3-yl)methoxy)phenyl)acetic acid], the IC50 is under 1000 nM. In the case of `NCc1cccc(-c2ccc3occ(COc4c(N)cccc4CC(=O)O)c3c2)c1` [Compound 90h, 2-(3-amino-2-((5-(3-(aminomethyl)phenyl)benzofuran-3-yl)methoxy)phenyl)acetic acid], the IC50 was under 1000 nM. Turning to `CC(C)n1nc(COc2ccccc2CC(=O)O)c2cc(-c3cccc(CN)c3O)ccc21` [Compound 318f, 2-(2-((5-(3-(aminomethyl)-2-hydroxyphenyl)-1-isopropyl-1H-indazol-3-yl)methoxy)phenyl)acetic acid], the IC50 is under 1000 nM. For `NCc1nccc(-c2ccc3occ(COc4ccccc4CC(=O)O)c3c2)c1F` [Compound 50d, 2-(2-((5-(2-(aminomethyl)-3-fluoropyridin-4-yl)benzofuran-3-yl)methoxy)phenyl)acetic acid], the concentration for half-maximal inhibition (IC50) is under 1000 nM. In the case of `COc1ccc(CC(=O)O)c(OCc2coc3c2cc(-c2cccc(CN)c2)c2occc23)c1` [Compound 231c, 2-(2-((5-(3-(aminomethyl)phenyl)benzo[1,2-b:3,4-b′]difuran-3-yl)methoxy)-4-methoxyphenyl)acetic acid] it was under 1000 nM. In the case of `NCc1cccc(-c2ccc3scc(COc4ccccc4CC(=O)O)c3c2)c1` [Compound 101d, 2-(2-((5-(3-(aminomethyl)phenyl)benzo[b]thiophen-3-yl)methoxy)phenyl)acetic acid] it was under 1000 nM. As to `NCc1cccc(-c2ccc3c(c2)c(COc2ccccc2CC(=O)O)nn3-c2ccccc2)c1` [Compound 144h, 2-(2-((5-(3-(aminomethyl)phenyl)-1-phenyl-1H-indazol-3-yl)methoxy)phenyl)acetic acid], the half-inhibitory concentration (IC50) is under 1000 nM. In the case of `NCc1cccc(-c2cc(CN3CCC(F)(F)C3)c3occ(COc4ccccc4CC(=O)O)c3c2)c1` [Compound 181f, 2-(2-((5-(3-(aminomethyl)phenyl)-7-((3,3-difluoropyrrolidin-1-yl)methyl)benzofuran-3-yl)methoxy)phenyl)acetic acid], the IC50 is under 1000 nM. In the case of `NCc1cccc(-c2cc(COc3ccccc3CC(=O)O)cc3cc(COc4ccccc4CC(=O)O)oc23)c1F` [Compound 13b, 2,2′-((((7-(3-(aminomethyl)-2-fluorophenyl)benzofuran-2,5-diyl)bis(methylene))bis(oxy))bis(2,1-phenylene))diacetic acid] it was under 1000 nM; in that of `COc1ccc(CC(=O)O)c(OCc2coc3c(OC)cc(-c4cccc(CN)c4)cc23)c1` [Compound 251c, 2-(2-((5-(3-(aminomethyl)phenyl)-7-methoxybenzofuran-3-yl)methoxy)-4-methoxyphenyl)acetic acid], under 1000 nM. On to `NCc1cccc(-c2cc(-c3ccccc3)c3occ(COc4ccccc4CC(=O)O)c3c2)c1` [Compound 135c, 2-(2-((5-(3-(aminomethyl)phenyl)-7-phenylbenzofuran-3-yl)methoxy)phenyl)acetic acid], for which the IC50 was under 1000 nM. For `CCNc1cc(-c2cccc(CN)c2)cc2c(COc3ccccc3CC(=O)O)coc12` [Compound 150d, 2-(2-((5-(3-(aminomethyl)phenyl)-7-(ethylamino)benzofuran-3-yl)methoxy)phenyl)acetic acid], the IC50 is under 1000 nM.

Regarding `CC(C)n1nc(COc2ccccc2CC(=O)O)c2cc(-c3ccc(N)cc3)ccc21` [Compound 322c, 2-(2-((5-(4-aminophenyl)-1-isopropyl-1H-indazol-3-yl)methoxy)phenyl)acetic acid], the IC50 was over 10000 nM. Take `CCCc1oc2ccc(-c3cccc(CN)c3)cc2c1COc1ccccc1CC(=O)O` [Compound 286c, 2-(2-((5-(3-(aminomethyl)phenyl)-2-propylbenzofuran-3-yl)methoxy)phenyl)acetic acid]: the half-inhibitory concentration (IC50) was under 1000 nM.

On to `COc1ccc(CC(=O)O)c(OCc2c(C)oc3c(C4CC4)cc(-c4cccc(CN)c4)cc23)c1` [Compound 273j, 2-(2-((5-(3-(aminomethyl)phenyl)-7-cyclopropyl-2-methylbenzofuran-3-yl)methoxy)-4-methoxyphenyl)acetic acid], for which the half-inhibitory concentration (IC50) is under 1000 nM. `NCc1cccc(-c2cccc3cc(C(=O)Nc4ccccc4CC(=O)O)oc23)c1` [Compound 21b, 2-(2-(7-(3-(aminomethyl)phenyl)benzofuran-2-carboxamido)phenyl)acetic acid]: the half-maximal inhibitory concentration (IC50) lay within 1000 to 10000 nM.

Consider `Cc1cc2c(o1)c(-c1cccc(CN)c1)cc1c(COc3ccccc3CC(=O)O)c(C)oc12` [Compound 272n, 2-(2-((5-(3-(aminomethyl)phenyl)-2,7-dimethylbenzo[1,2-b:3,4-b′]difuran-3-yl)methoxy)phenyl)acetic acid], for which the IC50 is under 1000 nM.

In the case of `COCCNc1cc(-c2cccc(CN)c2)cc2c(COc3ccccc3CC(=O)O)coc12` [Compound 296d, 2-(2-((5-(3-(aminomethyl)phenyl)-7-((2-methoxyethyl)amino)benzofuran-3-yl)methoxy)phenyl)acetic acid], the IC50 is under 1000 nM.

Regarding `NCc1cccc(-c2cc(CC3CCOCC3)c3occ(COc4ccccc4CC(=O)O)c3c2)c1` [Compound 163e, 2-(2-((5-(3-(aminomethyl)phenyl)-7-((tetrahydro-2H-pyran-4-yl)methyl)benzofuran-3-yl)methoxy)phenyl)acetic acid], the IC50 was under 1000 nM. Regarding `NCc1cccc(-c2ccc3occ(COc4cc(Br)ccc4CC(=O)O)c3c2)c1` [Compound 192b, 2-(2-((5-(3-(aminomethyl)phenyl)benzofuran-3-yl)methoxy)-4-bromophenyl)acetic acid], the IC50 was under 1000 nM.

In the case of `Cn1nc2ccc(-c3cccc(CN)c3)cc2c1COc1ccccc1CC(=O)O` [Compound 184e, 2-(2-((5-(3-(aminomethyl)phenyl)-2-methyl-2H-indazol-3-yl)methoxy)phenyl)acetic acid], the IC50 is under 1000 nM.
